The values that follow are results of earlier work, collected in patent US20190231691A1, “Biopharma Application Of Micell Technology” (Micell Technologies, Inc., priority 2015, published 2019).

SMILES strings stand for the structures.

The conditions of this data set: in vivo.

For `CO[C@H]1C[C@@H]2CC[C@@H](C)[C@@](O)(O2)C(=O)C(=O)N2CCCC[C@H]2C(=O)O[C@H]([C@H](C)C[C@@H]2CC[C@@H](O)[C@H](OC)C2)CC(=O)[C@H](C)/C=C(\C)[C@@H](O)[C@@H](OC)C(=O)[C@H](C)C[C@H](C)/C=C/C=C/C=C/1C` [rapamycin], the bioavailability entry was “less than 14%”.
